{
  "source": "patent US5420289A",
  "about": "“Substituted indole-, indene-, pyranoindole- and tetrahydrocarbazole-alkanoic acid derivatives as inhibitors of PLA2 and lipoxygenase” (American Home Products Corporation, priority 1993, dated 1995)",
  "key": {"[1]": {"biological_target": "T1, human synovial fluid PLA2 (Homo sapiens, UniProt P14555)", "T1 sequence (P14555 21-144)": "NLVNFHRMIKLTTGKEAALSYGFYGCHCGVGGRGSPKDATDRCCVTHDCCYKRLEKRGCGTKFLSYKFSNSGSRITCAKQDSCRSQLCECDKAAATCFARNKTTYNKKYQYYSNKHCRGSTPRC", "experiment": "in vitro isolated phospholipase A2 assay, human synovial fluid PLA2 (Example 74)", "type": "biochemical", "parameters": "inhibition / % Inhibition, HSF (human synovial fluid): dose or concentration left out as unconfirmed", "settings": "for inhibition: read-out: % Inhibition, HSF (human synovial fluid); for IC50: Table III, read-out: IC50 HSF (human synovial fluid)", "method": "The compounds of the invention are tested in an in vitro isolated phospholipase A2 assay to determine the ability of the test compounds to inhibit the release of arachidonic acid from an arachidonic acid-containing substrate by the action of phospholipase A2 enzyme from human and non-human sources.\n(§1) This assay is carried out as follows:\nInto a 15 mL polypropylene tube are added the following:\n^6 Two human PLA2 enzymes are used:\nb) Purified human synovial fluid.\nIncubate the 100mL reaction mixture for 10 minutes at 37° C. in a shaking water bath. The reaction is terminated by the addition of 2 mL tetrahydrofuran, followed by vortexlag. NH2 columns (100 mg/mL--Analytichem International) are conditioned with 0.5 mL tetrahydrofuran followed by 0.5 mL tetrahydrofuran/water (2 mL:0.1 mL, v/v).\nThe sample is loaded onto the columns and slowly drawn through them. The hydrolyzed arachidonic acid retained in the columns is eluted therefrom with 1 mL tetrahydrofuran/glacial acetic acid (2%). The arachidonic acid is transferred to scintillation vials and quantitated by b-counting analysis. A \"total counts\" sample is prepared by pipetting […] ^3 H-arachidonate E. coli directly into a scintillation vial to which is added 1 mL tetrahydrofuran. 10 mL aquasol (scintillation cocktail) is added to all samples. [formula]"}, "[2]": {"test_system": "5-lipoxygenase in human whole blood", "experiment": "inhibition of 5-lipoxygenase in human whole blood (Example 79)", "type": "cell-based", "settings": "for IC50: human whole blood, read-out: IC50 (inhibition of LTB4)", "method": "The assay of this Example measures the ability of the compounds tested to inhibit 5-lipoxygenase in human whole blood.\nas §1\nBlood is obtained in 50-100 ml quantities from male donors. White blood cell counts and differentials are made. Two ml of blood are placed in a 15 ml polypropylene test tube. Compounds are solubilized in dimethylsulfoxide and diluted 1:10 in 10% bovine serum albumin in phosphate buffered saline, pH 7.4 resulting in a final dimethylsulfoxide concentration of 0.1% in the blood. Then, compounds are added to the blood in a shaking water bath at 37° C. for 10 minutes prior to the addition of […] calcium ionophore (A23187; Sigma). After ionophore administration, whole blood samples are mixed and incubated for 20 minutes at 37° C. in a shaking water bath. Incubation is terminated by placing samples in an ice bath and immediately adding ethylene glycol-bis-(b-aminoethyl ether)-N,N,N',N'-tetraacetic acid (10 mM). Samples are mixed and centrifuged at 1200 × g for 15 minutes at 4° C. Preparation of samples for evaluation by RIA or ELISA is carried out by the following protocol. Plasma is removed from sample tubes, placed in 15 ml polypropylene test tubes containing 8 ml methanol, and then vortexed to precipitate protein. Samples are stored at -70° C. overnight. The next day, samples are centrifuged at 200 × g for 15 minutes at 4° C. to pellet the precipitate. Samples are dried in a Savant speed vac concentrator, reconstituted to original volume with ice cold RIA or ELISA buffer, and stored at -70° C. until assayed. The assay for eicosanoids (LTB4, T×B2, and PGE2) is performed as described by the manufacturer of the [^3 H]-RIA kit or ELISA kit (LTB4 -Amersham, TxB2 and PGE2 - Caymen Chemical).\nThe total eicosanoid level in 2 ml of blood is calculated and reported as ng/10^6 neutrophils. […] Drug effects are expressed as percent change from control values.\nCompounds tested in vitro are solubilized in dimethylsulfoxide and diluted 1:10 in 10% bovine serum albumin in phosphate buffer saline resulting in a final dimethylsulfoxide concentration of 0.1% i n the blood."}},
  "note": "Where a name gives a salt, the structure may show the parent alone.",
  "data": [
    {"compound": "1-[(4-Chlorophenyl)methyl]-5-(2-quinolinylmethoxy)-1H-indole-3-acetic acid [Example 32]", "values": [
      {"measurement": "% Inhibition, HSF (human synovial fluid)", "setting": "[1]", "value": 36, "unit": "%"}
    ]},
    {"compound": "Cc1c(CC(=O)N(C)O)c2cc(OCc3ccc4ccccc4n3)ccc2n1Cc1ccc(Cl)cc1", "note": "[Example 22, 1-[(4-Chlorophenyl)methyl]-2-methyl-N-(methyl)-N-(hydroxy)-5-(2-quinolinylmethoxy)-1H,indole-3-acetamide three quarters hydrate]", "values": [
      {"measurement": "% Inhibition of LTB4", "setting": "[2]; 25 μM", "value": 78, "unit": "%"},
      {"measurement": "IC50", "setting": "[2]", "value": 39.8, "unit": "µM"}
    ]},
    {"compound": "Cc1c(CC(=O)NS(=O)(=O)c2ccccc2)c2cc(OCc3ccc4ccccc4n3)ccc2n1Cc1ccc(Cl)cc1", "note": "[Example 23]", "values": [
      {"measurement": "inhibition", "setting": "[1]", "value": 64, "unit": "%"}
    ]},
    {"compound": "Cc1c(CC(=O)O)c2cc(OCc3ccc4ccccc4n3)ccc2n1Cc1ccc(C(=O)O)cc1", "note": "[Example 27, 1-[(4-Carboxyphenyl)methyl]-2-methyl-5-(2-quinolinylmethoxy)-1H-indole-3-acetic acid]", "values": [
      {"measurement": "inhibition", "setting": "[1]", "value": 45, "unit": "%"}
    ]},
    {"compound": "Cc1c(CC(=O)O)c2cc(OCc3ccc4ccccc4n3)ccc2n1Cc1ccc(OCc2ccc3ccccc3n2)cc1", "note": "[Example 28, 2-Methyl-5-(2-quinolinylmethoxy)-1-[[4-(2-quinolinylmethoxy)phenyl]methyl]-1H-indole-3-acetic acid hemihydrate]", "values": [
      {"measurement": "inhibition", "setting": "[1]", "value": 41, "unit": "%"}
    ]},
    {"compound": "O=C(O)Cc1cn(Cc2ccc(Cl)cc2)c2ccc(OCc3ccc4ccccc4n3)cc12", "note": "[Example 33, 1-[(4-Chlorophenyl)methyl]-5-(2-quinolinylmethoxy)-1H-indole-3-acetic acid]", "values": [
      {"measurement": "inhibition", "setting": "[1]", "value": 38, "unit": "%"}
    ]},
    {"compound": "Cc1c(CC(=O)O)c2cc(OCc3ccc4ccccc4c3)ccc2n1Cc1ccc(Cl)cc1", "note": "[Example 34, 1-[(4-Chlorophenyl)methyl]-2-methyl-5-(2-naphthalenylmethoxy)-1H-indole-3-acetic acid]", "values": [
      {"measurement": "IC50", "setting": "[1]", "value": 33.7, "unit": "µM"}
    ]},
    {"compound": "Cc1c(CC(=O)O)c2cc(OCc3ccccc3)ccc2n1Cc1ccc(Cl)cc1", "note": "[Example 35, 1-[(4-Chlorophenyl)methyl]-2-methyl-5-(phenylmethoxy)-1H-indole-3-acetic acid]", "values": [
      {"measurement": "IC50", "setting": "[1]", "value": 52.9, "unit": "µM"},
      {"measurement": "inhibition", "setting": "[1]", "value": 28, "unit": "%"}
    ]},
    {"compound": "Cc1c(CC(=O)O)c2cc(OCc3ccccn3)ccc2n1Cc1ccc(Cl)cc1", "note": "[Example 36, 1-[(4-Chlorophenyl)methyl]-2-methyl-5-(2-pyridinylmethoxy)-1H-indole-3-acetic acid]", "values": [
      {"measurement": "inhibition", "setting": "[1]", "value": 46, "unit": "%"}
    ]},
    {"compound": "Cc1c(CC(=O)O)c2cc(OCc3nc4ccccc4s3)ccc2n1Cc1ccc(Cl)cc1", "note": "[Example 37, 1-[(4-Chlorophenyl)methyl]-2-methyl-5-(2-benzothiazolylmethoxy)-1H-indole-3-acetic acid]", "values": [
      {"measurement": "inhibition", "setting": "[1]", "value": 39, "unit": "%"}
    ]},
    {"compound": "Cc1c(CC(=O)O)c2cc(OCc3csc(-c4ccccc4)n3)ccc2n1Cc1ccc(Cl)cc1", "note": "[Example 38, 1-[(4-Chlorophenyl)methyl]-2-methyl-5-[(2-phenyl-4-thiazolyl)methoxy]-1H-indole-3-acetic acid]", "values": [
      {"measurement": "inhibition", "setting": "[1]", "value": 31, "unit": "%"}
    ]},
    {"compound": "Cc1c(CC(=O)O)c2cc(OCc3csc(-c4ccc(C(F)(F)F)cc4)n3)ccc2n1Cc1ccc(Cl)cc1", "note": "[Example 39, 1-[(4-Chlorophenyl)methyl]-2-methyl-5-[[2-(4-trifluoromethylphenyl)-4-thiazolyl]methoxy]-1H-indole-3-acetic acid]", "values": [
      {"measurement": "inhibition", "setting": "[1]", "value": 46, "unit": "%"}
    ]},
    {"compound": "Cc1c(CC(=O)O)c2cc(OCc3csc(-c4ccccc4)n3)ccc2n1Cc1ccccc1", "note": "[Example 40, 1-[(Phenyl)methyl]-2-methyl-5-[(2-phenyl-4-thiazolyl)methoxy]-1H-indole-3-acetic acid]", "values": [
      {"measurement": "inhibition", "setting": "[1]", "value": 42, "unit": "%"}
    ]},
    {"compound": "Cc1c(CNC(=O)NO)c2cc(OCc3ccc4ccccc4n3)ccc2n1Cc1ccc(Cl)cc1", "note": "[Example 42, N-[[1-[(4-Chlorophenyl)methyl]-2-methyl-5-(2-quinolinylmethoxy)-1H-indol-3-yl]methyl]-N'-hydroxyurea]", "values": [
      {"measurement": "% Inhibition of LTB4", "setting": "[2]; 25 μM", "value": 89, "unit": "%"},
      {"measurement": "IC50", "setting": "[2]", "value": 5.6, "unit": "µM"}
    ]},
    {"compound": "CC1=C(CC(=O)N(C)O)c2cc(F)ccc2C1=Cc1ccc(OCc2ccc3ccccc3n2)cc1", "note": "[Example 44, 5-Fluoro-N-hydroxy-N,2-dimethyl-1-[[4-(2-quinolinylmethoxy)penyl]methylene]-1H -indene-3-acetamide hydrochloride]", "values": [
      {"measurement": "% Inhibition of LTB4", "setting": "[2]; 25 μM", "value": 94, "unit": "%"},
      {"measurement": "IC50", "setting": "[2]", "value": 4.5, "unit": "µM"}
    ]},
    {"compound": "CCOC(=O)Cc1c(C)n(Cc2ccc(SC)cc2)c2ccc(OCc3nc4ccccc4s3)cc12", "note": "[Example 53, 5-(2-Benzothiazolylmethoxy)-1-[[4-(methylthio)phenyl]methyl]-2-methyl-1H-indole-3-acetic acid ethyl ester]", "values": [
      {"measurement": "inhibition", "setting": "[1]", "value": 1, "unit": "%"},
      {"measurement": "% Inhibition of LTB4", "setting": "[2]; 25 μM", "value": 80, "unit": "%"}
    ]},
    {"compound": "Cc1c(CC(=O)N(C)O)c2cc(OCc3csc(-c4ccccc4)n3)ccc2n1Cc1ccccc1", "note": "[Example 57, N-hydroxy-5-[(2-phenyl-4-thiazolyl)methoxy]-1-(phenylmethyl)-N,2-dimethyl-1H-indole-3-acetamide]", "values": [
      {"measurement": "IC50", "setting": "[2]", "value": 43.3, "unit": "µM"}
    ]},
    {"compound": "CSc1ccc(Cn2c(C)c(CC(=O)O)c3cc(OCc4csc(-c5ccccc5)n4)ccc32)cc1", "note": "[Example 58, 5-[(2-Phenyl-4-thiazolyl)methoxy]-1-[[(4-methylthio)phenyl]methyl]-2-methyl-1H -indole-3-acetic acid]", "values": [
      {"measurement": "inhibition", "setting": "[1]", "value": 43, "unit": "%"}
    ]},
    {"compound": "CCOC(=O)Cc1c(C)n(Cc2cccc(OC)c2)c2ccc(OCc3csc(-c4ccccc4)n3)cc12", "note": "[Example 59, 5-[(2-Phenyl-4-thiazolyl)methoxy]-1-[[(3-methoxy)phenyl]methyl]-2-methyl-1H-indole-3-acetic acid ethyl ester]", "values": [
      {"measurement": "inhibition", "setting": "[1]", "value": 6, "unit": "%"}
    ]},
    {"compound": "CCOC(=O)Cc1c(C)n(Cc2ccc(C(C)(C)C)cc2)c2ccc(OCc3csc(-c4ccccc4)n3)cc12", "note": "[Example 61, 5-[(2-Phenyl-4-thiazolyl)methoxy]-1-[[4-(1,1-dimethylethyl)phenyl]methyl]-2-methyl-1H-indole-3-acetic acid ethyl ester]", "values": [
      {"measurement": "% Inhibition of LTB4", "setting": "[2]; 25 μM", "value": 5, "unit": "%"}
    ]},
    {"compound": "Cc1c(CC(=O)O)c2cc(OCc3csc(-c4ccccc4)n3)ccc2n1Cc1ccc2ccccc2c1", "note": "[Example 67, 5-[(2-Phenyl-4-thiazolyl)methoxy]-1-(2-nanhthalenylmethyl)-2-methyl-1H-indole-3-acetic acid]", "values": [
      {"measurement": "inhibition", "setting": "[1]", "value": 49, "unit": "%"},
      {"measurement": "% Inhibition of LTB4", "setting": "[2]; 25 μM", "value": 30, "unit": "%"}
    ]},
    {"compound": "CC(c1cc2ccccc2s1)N(O)C(N)=O", "note": "(stereo not drawn) [Example A-64077, reference compound]", "values": [
      {"measurement": "% Inhibition of LTB4", "setting": "[2]; 25 μM", "value": 72, "unit": "%"},
      {"measurement": "IC50", "setting": "[2]", "value": 3, "unit": "µM"}
    ]},
    {"compound": "CC(C)c1ccc2c(c1)c(SC(C)(C)C)c(CC(C)(C)C(=O)O)n2Cc1ccc(Cl)cc1", "note": "[L-663,536, reference compound]", "values": [
      {"measurement": "% Inhibition of LTB4", "setting": "[2]; 3 μM", "value": 96, "unit": "%"}
    ]}
  ]
}
